By GI50 is commonly meant the concentration that inhibits growth by half. A lower GI50 goes with more potent growth inhibition. Usually IC50 stands for the concentration at which inhibition is half-maximal. Low values mean greater potency, high ones weaker potency.

One experiment has as its system HCT 116 (colon) cells. As to the kind of experiment: Anti-cancer screen, growth inhibition (MTT). As to conditions: Homo sapiens, HCT-116 cells, 48 hours of incubation. It is filed as cell-based. On the procedure: (§1) Experimental drugs were screened for anti-cancer activity in three cell fines using five concentrations for each compound.
(§2) Following 24-hour incubation, test compounds were added to the 96 well plates. Each plate contains one of the above cell lines and the following samples in triplicate: five different dilutions (0.01, 0.1, 1, 10 and 100 μM) of four test compounds, appropriate dilutions of a cytotoxic standard and growth medium (untreated) wells. […] SAHA was used as standard drug in these experiments.
(§3) For T0 measurement, 24 hours after seeding the cells, 20 μL of 3-(4.5-dimethyl-2-thiazolyl)-2,5-diphenyl-2H-tetrazolium (MTT) solution per well was added to the ‘T0’ plate and incubated for 3 hours at 37° C. in a CO2 incubator. The plate containing cells and test compounds was treated similarly after 48 hours of incubation. After 3 hours of MTT addition, well contents were aspirated carefully followed by addition of 150 μL DMSO per well. Plates were agitated to ensure dissolution of the formazan crystals in DMSO and absorbance was read at 570 nm (A570).

The subject of another experiment is NCI-H460 (lung) cells. As to the kind of experiment: Anti-cancer screen, growth inhibition (MTT). It is filed as cell-based. To be noted: Homo sapiens, 48 hours of incubation. How it is done:
as §1, §2, §3

A further experiment has as its system U251 (glioma) cells. As to the kind of experiment: Anti-cancer screen, growth inhibition (MTT). The experiment is classed as cell-based. To be noted: Homo sapiens, U-251 cells, 48 hours of incubation. On the procedure:
as §1, §2, §3

For experiment [1], the system named is T1, HDAC (Mouse Liver Extract).
T1 construct: Mouse liver enzyme (10 mg/ml) was diluted 1:6 with HDAC buffer
Put plainly: HDAC inhibition assay using Boc-Lys(Ac)-AMC substrate, mouse liver enzyme.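 On IC50: IC50 for inhibition of HDAC activity in mouse liver extract.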 The experiment is classed as biochemical. On the procedure: Histone Deacetylase (HDAC) Inhibition Assay using Boc-Lys (Ac)-AMC Substrate: Inhibition of HDAC has been implicated to modulate transcription and to induce apoptosis or differentiation in cancer cells. The fluorometric assay provides a fast and fluorescence based method that eliminates radioactivity, extractions or chromatography, as used in traditional assays. The assay is based on two steps. First, the HDAC fluorometric substrate, which comprises an acetylated lysine side chain, is incubated with a sample containing HDAC activity (Mouse Liver Extract). Deacetylation of the substrate sensitizes the substrate, in the second step; treatment with the Trypsin stop solution produces a fluorophore that can be easily analyzed using fluorescence plate reader.
Assay was done in 96-well black microplate and total volume of the assay was 100 μL. Mouse liver enzyme (10 mg/ml) was diluted 1:6 with HDAC buffer. Enzyme cocktail was made of 10 μL of diluted enzyme and 30 μL of HDAC buffer. 40 μl of enzyme cocktail followed by 10 μL of test compound (1 μM and 10 μM) or buffer (control) was added to each well. The plate was pre-incubated at 37° C. for 5 minutes. The HDAC reaction was started by adding 50 μl of HDAC substrate Boc-Lys (Ac)-AMC (Bachem AG, Switzerland). The plate was incubated at 37° C. for 30 minutes. […] Measuring the fluorescence at excitation wavelength of 360 nm and emission wavelength of 460 nm monitored the release of AMC. Buffer alone and substrate alone served as blank.

With `O=C(/C=C/c1ccc(/C=C(/C(=O)NC2CC2)c2ccccc2F)cc1)NCCCCCC(=O)NO` [Example 78, 6-((1E)-3-(4-(3-(Cyclopropylamino)-2-(2-fluorophenyl)-3-oxoprop-1-en-1-yl)phenyl)acrylamido)-N-hydroxyhexanamide], the GI50 in the experiment on HCT 116 (colon) cells came to 5.6 µM; in the experiment with NCI-H460 (lung) cells, 10.3 µM; in the experiment with U251 (glioma) cells, 22 µM. Besides, the “HDAC Inhibition % (1 μM)” value in experiment [1] was determined as 98.1%. Further, the “HDAC Inhibition % (10 μM)” value in experiment [1] came to 99.9%.
`O=C(/C=C/c1ccc(C=C(C(=O)NC2CC2)c2cccs2)cc1)NCCCCCC(=O)NO` (stereo in doubt) [Example 83, 6-((1E)-3-(4-(3-(Cyclopropylamino)-2-(thiophen-2-yl)-3-oxoprop-1-enyl)phenyl)acrylamido)-N-hydroxyhexanamide] came in with a GI50 in the experiment on HCT 116 (colon) cells of 6 µM. This compound yielded a GI50 with NCI-H460 (lung) cells of 10.5 µM. This compound registered a GI50 in the experiment with U251 (glioma) cells of 10 µM. In addition, in experiment [1], 0.001 µM corresponded to half-maximal inhibition (IC50), the “HDAC Inhibition % (1 μM)” value is reported as 98.8% and the “HDAC Inhibition % (10 μM)” value worked out at 99.6%.
Consider `O=C(NC1CC1)/C(=C/c1ccc(C(=O)NCc2ccc(C(=O)NO)cc2)cc1)c1cccc(F)c1` [Example 156, 4-(3-(Cyclopropylamino)-2-(3-fluorophenyl)-3-oxoprop-1-en-1-yl)-N-(4-(hydroxycarbamoyl)benzyl)benzamide], for which the GI50 in the experiment with HCT 116 (colon) cells, with NCI-H460 (lung) cells and with U251 (glioma) cells was 26 µM throughout. Moreover, the “HDAC Inhibition % (1 μM)” value in experiment [1] is recorded as 88.4%. The “HDAC Inhibition % (10 μM)” value in experiment [1] stood at 98.1%.
With `Nc1ccccc1NC(=O)c1ccc(/C=C(/C(=O)NC2CC2)c2ccc(O)cc2)cc1` [Example 128, N-(2-Aminophenyl)-4-(2-(4-hydroxyphenyl)-3-(cyclopropylamino)-3-oxoprop-1-en-1-yl)benzamide], the values for the GI50 with HCT 116 (colon) cells, in the experiment with NCI-H460 (lung) cells and in the experiment with U251 (glioma) cells were 24 µM, 26 µM and 28 µM, respectively. Besides, the “HDAC Inhibition % (1 μM)” value in experiment [1] was found to be 31.8%. Moreover, the “HDAC Inhibition % (10 μM)” value in experiment [1] was 55.1%.
Consider `COc1ccc(/C(=C\c2ccc(C(=O)Nc3ccccc3N)cc2)C(=O)NC2CC2)c(OC)c1` [Example 120, N-(2-Aminophenyl)-4-(3-(cyclopropylamino)-2-(2,4-dimethoxyphenyl)-3-oxoprop-1-en-1-yl)benzamide], for which the results for the GI50 with HCT 116 (colon) cells, with NCI-H460 (lung) cells and with U251 (glioma) cells were 10.5 µM, 21 µM and 10 µM, respectively. In experiment [1], the “HDAC Inhibition % (1 μM)” value was found to be 36.9%. Moreover, the “HDAC Inhibition % (10 μM)” value in experiment [1] is reported as 59.3%.
With `Cc1ccc(/C(=C\c2ccc(/C=C/C(=O)NCc3ccc(C(=O)NO)cc3)cc2)C(=O)NC2CC2)cc1` [Example 92, 4-(((1E)-3-(4-(3-(Cyclopropylamino)-2-(4-methylphenyl)-3-oxoprop-1-en-1-yl)phenyl)acrylamido)methyl)-N-hydroxybenzamide], the GI50 in the experiment with HCT 116 (colon) cells was 3 µM; in the experiment on NCI-H460 (lung) cells, 0.1 µM; in the experiment with U251 (glioma) cells, 24 µM. In experiment [1], inhibition was half-maximal at 0.0017 µM (IC50). For the same compound, the “HDAC Inhibition % (1 μM)” value in experiment [1] is on record as 85.8%. Besides, the “HDAC Inhibition % (10 μM)” value in experiment [1] is 99.7%.
With `Nc1ccccc1NC(=O)/C=C/c1ccc(/C=C(/C(=O)NC2CC2)c2ccccc2)cc1` [Example 70, N-Cyclopropyl-3-(4-((1E)-3-(2-aminophenylamino)-3-oxoprop-1-en-1-yl}phenyl)-2-phenylacrylamide], the 50% growth inhibitory concentration (GI50) in the experiment with HCT 116 (colon) cells, with NCI-H460 (lung) cells and in the experiment with U251 (glioma) cells was more than 100 µM in each case. Also, the “HDAC Inhibition % (1 μM)” value in experiment [1] is listed as 34.0%. The “HDAC Inhibition % (10 μM)” value in experiment [1] stood at 36.0%.
As for `O=C(/C=C/c1ccc(/C=C(/C(=O)NC2CC2)c2cccc(Cl)c2)cc1)NCc1ccc(C(=O)NO)cc1` [Example 91, 4-(((1E)-3-(4-(3-(Cyclopropylamino)-2-(3-chlorophenyl)-3-oxoprop-1-en-1-yl)phenyl)acrylamido)methyl)-N-hydroxybenzamide], the GI50 turned out to be 0.2 µM with HCT 116 (colon) cells, 25 µM in the experiment with NCI-H460 (lung) cells and 0.2 µM in the experiment on U251 (glioma) cells. Also, the IC50 in experiment [1] was less than 0.001 µM. For the same compound, in experiment [1], the “HDAC Inhibition % (1 μM)” value was 99.8%. For the same compound, the “HDAC Inhibition % (10 μM)” value in experiment [1] was 100.0%.
As for `O=C(/C=C/c1ccc(CNC(=O)c2ccc(/C=C(/C(=O)NC3CC3)c3ccc4c(c3)OCO4)cc2)cc1)NO` [Example 147, 4-(3-(Cyclopropylamino)-2-[benzodioxol-5-yl]-3-oxoprop-1-en-1-yl)-N-(4-((E)-3-(hydroxyamino)-3-oxoprop-1-en-1-yl)benzyl)benzamide], the GI50 amounted to 20 µM in the experiment on HCT 116 (colon) cells, 95 µM in the experiment on NCI-H460 (lung) cells and 19 µM in the experiment on U251 (glioma) cells. In addition, the “HDAC Inhibition % (1 μM)” value in experiment [1] was determined as 94.6%. Moreover, the “HDAC Inhibition % (10 μM)” value in experiment [1] came to 100.0%.
For the compound `Nc1ccccc1NC(=O)c1ccc(/C=C(\C(=O)NC2CC2)c2ccc(F)cc2)cc1` [Example 135, (Z)—N-(2-Aminophenyl)-4-(2-(4-fluorophenyl)-3-(cyclopropylamino)-3-oxoprop-1-en-1-yl)benzamide], the concentration for 50% growth inhibition (GI50) was determined as 6.8 µM in the experiment with HCT 116 (colon) cells, 76 µM with NCI-H460 (lung) cells and 9.8 µM with U251 (glioma) cells. Moreover, the “HDAC Inhibition % (1 μM)” value in experiment [1] stood at 8.6%. For the same compound, the “HDAC Inhibition % (10 μM)” value in experiment [1] was determined as 16.6%.
As to `O=C(CCCCCNC(=O)c1ccc(/C=C(/C(=O)NC2CC2)c2ccccc2)cc1)NO` [Example 161], it took 8.2 µM to inhibit growth in the experiment with HCT 116 (colon) cells by half (GI50). In the experiment with NCI-H460 (lung) cells, this compound returned a 50% growth inhibitory concentration (GI50) of 5.3 µM. Further, the GI50 with U251 (glioma) cells was 3.2 µM. Besides, in experiment [1], 0.006 µM corresponded to half-maximal inhibition (IC50), the “HDAC Inhibition % (1 μM)” value was 87.8% and the “HDAC Inhibition % (10 μM)” value was 97.5%.
In the case of `O=C(/C=C/c1ccc(/C=C(/C(=O)NC2CC2)c2ccc(F)cc2)cc1)NCCCCCC(=O)NO` [Example 75, 6-((1E)-3-(4-(3-(Cyclopropylamino)-2-(4-fluorophenyl)-3-oxoprop-1-en-1-yl)phenyl)acrylamido)-N-hydroxyhexanamide], the GI50 was 23 µM in the experiment with HCT 116 (colon) cells, 38 µM in the experiment with NCI-H460 (lung) cells and 30 µM with U251 (glioma) cells. Moreover, in experiment [1], the “HDAC Inhibition % (1 μM)” value was 70.3%. Moreover, the “HDAC Inhibition % (10 μM)” value in experiment [1] is listed as 94.4%.
`O=C(/C=C/c1ccc(/C=C(/C(=O)NC2CC2)c2cccc(Cl)c2)cc1)NCCCCCC(=O)NO` [Example 80, 6-((1E)-3-(4-(3-(Cyclopropylamino)-2-(3-chlorophenyl)-3-oxoprop-1-en-1-yl)phenyl)acrylamido)-N-hydroxyhexanamide]: the GI50 with HCT 116 (colon) cells is 4 µM. The compound further returned a GI50 in the experiment with NCI-H460 (lung) cells of 19 µM. Halving of growth in the experiment with U251 (glioma) cells (GI50) required 0.8 µM. For the same compound, in experiment [1], the IC50 was less than 0.001 µM, the “HDAC Inhibition % (1 μM)” value was 100.0% and the “HDAC Inhibition % (10 μM)” value worked out at 100.0%.
Turning to `O=C(CCCCCNC(=O)c1ccc(/C=C(/C(=O)NC2CC2)c2cccc(F)c2)cc1)NO` [Example 164, 4-(3-(Cyclopropylamino)-2-(3-fluorophenyl)-3-oxoprop-1-en-1-yl)-N-(6-(hydroxyamino)-6-oxohexyl)benzamide], the results for the GI50 with HCT 116 (colon) cells, in the experiment with NCI-H460 (lung) cells and with U251 (glioma) cells were 15 µM, 28 µM and 30 µM, respectively. For the same compound, the “HDAC Inhibition % (1 μM)” value in experiment [1] was determined as 91.9%. Moreover, the “HDAC Inhibition % (10 μM)” value in experiment [1] is reported as 100.0%.
The corresponding values for `COc1ccc(/C(=C\c2ccc(C(=O)Nc3ccccc3N)cc2)C(=O)Nc2ccccc2)cc1OC` [Example 118, N-(2-Aminophenyl)-4-(3-(phenylamino)-2-(3,4-dimethoxyphenyl)-3-oxoprop-1-en-1-yl)benzamide] are 10 µM, 90 µM, 4.2 µM, 21.0% and 46.0%.

Source of the values: patent publication US8450525B2, “Histone deacetylase inhibitors” (Orchid Chemicals & Pharmaceuticals Limited, priority 2007, dated 2013).
